In assay [1] the test system is CK-p25 mice. Briefly: Novel object recognition test in CK-p25 mice. The class given is in vivo, mouse. The method, then: Given the neuroprotective effect of Plx3397+GENUS treatment, whether this treatment also impacted learning and memory was evaluated. Mice were tested in an open field (OF) and assessed for changes in anxiety and activity levels, followed by a novel object recognition (NOR) test of memory. 10-month-1d 5×FAD mice were treated with Plx3397. Following 20 days administration of Plx3397 chow, untreated- and Plx3397 treated 5×FAD mice (which continued PLX administration) were subjected to 30 days of daily GENUS. Mice were tested in OF and NOR during the last week of these treatments. […] Next, CK-p25 mice were treated for 42 days and assessed behavioral performance.
For OF, mice were introduced into an open field box (dimensions: length=460 mm, width=460 mm and height=400 mm; TSE-Systems) and were tracked using Noldus (Ethovision) for 12 min, with time spent in the center and peripheral area of the arena measured. […] Mouse behavior was monitored for 7 min. Time spent exploring both the familiar and novel objects was recorded using Noldus and computed offline. Percentage of novelty preference index was calculated as follows: time exploring novel object (Nt) divided by total time exploring novel and familiar (Ft) objects and presented in %−{[Nt/Nt+Ft]*100}. […]

In assay [2] the test system is LFP oscillations in the visual cortex. Briefly: In vivo electrophysiology: LFP power and 40 Hz entrainment in visual cortex. Also on record: species or system mouse. As to the method:
Next, it was aimed to understand how these treatments impacted the LFP oscillations and neuronal action potentials. First, in vivo awake animal electrophysiology was performed using high-density linear probes and verified whether 5×FAD mice with reduced microglia by Plx3397 treatment can entrain 40 Hz sensory stimulation. […] At the group level gamma stimulation increased gamma but not theta power as expected based on previous findings (2 W ANOVA, groups x frequency, F (1,6)=32.03, P=0.0013) (FIGS. 15A, 15B).
Mice were anaesthetized with isoflurane, restrained in a stereotactic apparatus and craniotomies were made exposing the visual cortex (AP: −3.2 & ML: +2.5). […] The reference electrode was targeted to the white matter tract above the hippocampus. Mice were allowed to recover for a period of 4 days.
Following a 2-3-day habitation period for the recording, recordings commenced with the animal allowed to move freely in their home cages. Data were acquired using Neuralynx SX system (Neuralynx, Bozeman, Mont., USA) and signals were sampled at 32,000 Hz. The position of animals was tracked using red light-emitting diodes affixed to the probes. At the conclusion of the experiment, mice underwent terminal anesthesia and electrode positions were marked by electrolytic lesioning of brain tissue with […] current for 10 s through each electrode individually, to confirm their anatomical location.
LFPs were first filtered to the Nyquist frequency of the target sampling rate then downsampled to 1000 Hz. Power spectral analyses were performed using the pwelch function in MATLAB using a 500 ms time window with a 50% overlap.
Mice were anaesthetized with isoflurane, restrained in a stereotactic apparatus and craniotomies were made exposing the visual cortex. Specifically, a 2×2 mm piece of skull was removed using a dental drill, which was above the V1 (stereotaxic 826 coordinates relative to bregma; AP −3.2; ML+2.5); during this entire procedure, the dura was kept intact and moist with saline. Following the skull removal from above both the right V1, two additional drilling holes above the frontal cortex were made and two skull screws were placed. […] The probe was grounded to skull screw above the cerebellum. Petroleum jelly (Vaseline, 100% white petrolatum) was gently applied on the cranial window without touching the probe/electrodes, which protected both the brain and probe/electrode. Next, the probe was further lowered and/or adjusted to reach the target depth. Finally, the probe was cemented on the skull with dental cements, first with a metabond (Parkell, C&B Metabond Quick Adhesive Cement System, #836 SKU:S380) followed by a dental cement from Steolting (#51459). Mice were allowed to recover for a period of 4 days.
Data analyses: LFPs were first filtered to the Nyquist frequency of the target sampling rate then down-sampled to 1000 Hz. Power spectral analyses were performed using the pwelch function in MATLAB using a 500 ms time window with a 50% overlap.
Time-frequency representation of LFP: The LFP data were down sampled to 1,000 Hz. For the calculation of the wavelet power spectrum, the continuous wavelet transforms (CWT) was applied to the LFP using complex Morlet wavelets returning amplitudes at 226 intervals between 1-100 Hz. CWT based wavelet power spectrum was shown in FIG. 21A, FIG. 26C, and FIG. 27C. For visualizing 40 Hz entrainment at finer frequency resolution, multitaper spectral analysis using Chronux toolbox was used.

Turning to `FC(F)(F)c1ccc(CNc2ccc(Cc3c[nH]c4ncc(Cl)cc34)cn2)cn1` [Plx3397, Pexidartinib], in assay [1] (CK-p25 mice treated for 42 days), the “novel object recognition memory in the NOR test” value was “significantly improved”. In addition, the “novel object recognition memory in the NOR test (novelty index)” value in assay [1] (CK-p25 mice, control 54.82±3.70) was found to be 70.52±2.89. Besides, the “entrainment of 40 Hz sensory stimulation” value in assay [2] (5×FAD mice with microglia reduced by Plx3397, awake recording) is recorded as “can indeed entrain 40 Hz”. Besides, the LFP spectral power result in assay [2] (5×FAD mice, Plx3397 diet 50 days vs control) was “no significant difference”. Further, the “time-resolved LFP gamma and theta power” value in assay [2] (5×FAD mice, chronic Plx3397 administration) is “elevated power of gamma and theta that occur incongruently”. Further, the gamma response latency entry in assay [2] (5×FAD mice, untreated vs Plx3397 treated) is on record as “comparable”. Moreover, the “power of 40 Hz entrainment compared to control 5×FAD mice” value in assay [2] (Plx3397 administered 5×FAD mice, acute 40 Hz stimulation) is “higher”. For the same compound, in assay [2] (Plx3397 treated 5×FAD mice during acute 40 Hz visual stimulation), the aberrant theta-bursts entry is listed as “reduced”.
